# In patent publication US9796711B2, “Substituted pyrazolo[3,4-b]pyridin-6-carboxylic acids and method of use” (AbbVie S.àr.l., priority 2015, dated 2017):
# How the values were obtained:
# ΔF508-CFTR [1] = target: T1, ΔF508-CFTR (Homo sapiens, UniProt P13569, DEL508-508); test: CFTR cell surface levels using HRP-tagged ΔF508-CFTR expressing CFBE cells, intrinsic corrector capacity; type: cell-based; conditions: for EC50: read-out: EC50
# T1 construct: host or cells: CFBE41o-, doxycycline-inducible
# Summary of the method: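 Here the cells express ΔF508-CFTR with horseradish peroxidase inserted in extracellular loop 4, so only rescued channel at the surface gives luminescent signal. Compounds act on their own, 20 h at the reduced temperature of 33 °C; values are percent activity relative to DMSO and a 3 μM corrector.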
# ΔF508-CFTR [2] = target: T1, ΔF508-CFTR; test: CFTR cell surface levels using HRP-tagged ΔF508-CFTR expressing CFBE cells, in the presence of a co-corrector; type: cell-based; conditions: HRP-tagged ΔF508-CFTR expressing CFBE cells, in the presence of 3 μM co-corrector; for EC50: read-out: EC50
# Summary of the method: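 Cells were seeded with 0.5 μg/mL doxycycline and held 68 h at 37 °C. Test compounds plus 3 μM co-corrector (final 0.1% DMSO) were then added for 20 h at 33 °C. Washed cells received HRP substrate, and luminescence was normalized between DMSO and 3 μM co-corrector controls.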
# [3] = HRP-tagged ΔF508-CFTR CFBE41o- cells, compounds alone (intrinsic corrector capacity), 20 hours at 33° C., positive control 3 μM corrector
# [4] = HRP-tagged ΔF508-CFTR CFBE41o- cells, compounds alone (intrinsic corrector capacity), 20 hours at 33° C.
# [5] = HRP-tagged ΔF508-CFTR expressing CFBE cells, intrinsic corrector capacity (no co-corrector), 33° C., 20 hours
# T1 sequence (P13569 with tags, fused parts or gaps DEL508-508): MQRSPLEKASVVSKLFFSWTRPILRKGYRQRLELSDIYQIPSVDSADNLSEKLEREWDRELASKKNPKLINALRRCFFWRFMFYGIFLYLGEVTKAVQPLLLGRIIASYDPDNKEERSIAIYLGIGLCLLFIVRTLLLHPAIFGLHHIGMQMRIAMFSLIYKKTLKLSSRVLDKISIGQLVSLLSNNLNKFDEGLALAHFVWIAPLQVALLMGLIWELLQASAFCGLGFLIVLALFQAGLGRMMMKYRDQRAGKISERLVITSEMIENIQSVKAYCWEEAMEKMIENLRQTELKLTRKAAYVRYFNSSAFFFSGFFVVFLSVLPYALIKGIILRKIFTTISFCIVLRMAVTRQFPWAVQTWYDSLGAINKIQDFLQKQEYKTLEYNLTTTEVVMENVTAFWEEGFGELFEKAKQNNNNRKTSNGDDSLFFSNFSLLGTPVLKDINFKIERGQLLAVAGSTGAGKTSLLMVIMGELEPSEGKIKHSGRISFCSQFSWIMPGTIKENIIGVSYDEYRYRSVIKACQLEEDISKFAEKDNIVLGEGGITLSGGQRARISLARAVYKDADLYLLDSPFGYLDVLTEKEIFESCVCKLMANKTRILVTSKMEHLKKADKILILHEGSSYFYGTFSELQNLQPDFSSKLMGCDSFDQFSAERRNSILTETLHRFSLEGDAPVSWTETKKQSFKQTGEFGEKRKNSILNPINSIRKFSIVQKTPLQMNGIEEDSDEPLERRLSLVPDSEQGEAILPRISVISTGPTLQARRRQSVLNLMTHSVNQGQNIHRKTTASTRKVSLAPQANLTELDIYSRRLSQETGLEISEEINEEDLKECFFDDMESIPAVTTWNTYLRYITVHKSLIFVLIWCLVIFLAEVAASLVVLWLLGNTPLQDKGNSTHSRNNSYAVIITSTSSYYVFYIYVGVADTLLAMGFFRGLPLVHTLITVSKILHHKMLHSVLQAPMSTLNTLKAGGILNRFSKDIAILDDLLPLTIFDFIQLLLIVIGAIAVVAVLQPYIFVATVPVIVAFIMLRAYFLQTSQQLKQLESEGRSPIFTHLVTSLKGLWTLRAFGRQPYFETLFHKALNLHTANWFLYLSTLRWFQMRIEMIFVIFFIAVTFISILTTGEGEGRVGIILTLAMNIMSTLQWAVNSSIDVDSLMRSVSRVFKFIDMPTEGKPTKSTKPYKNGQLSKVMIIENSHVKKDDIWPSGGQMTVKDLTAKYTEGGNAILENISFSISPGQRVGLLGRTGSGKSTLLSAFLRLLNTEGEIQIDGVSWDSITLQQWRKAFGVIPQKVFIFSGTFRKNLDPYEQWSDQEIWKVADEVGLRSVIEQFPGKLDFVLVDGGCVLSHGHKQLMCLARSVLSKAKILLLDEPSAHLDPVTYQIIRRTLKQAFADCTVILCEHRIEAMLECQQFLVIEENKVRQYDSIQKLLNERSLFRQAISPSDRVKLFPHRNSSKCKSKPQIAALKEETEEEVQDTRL
SMILES,% Activation (ΔF508-CFTR [1]; [3]) [%],EC50 (ΔF508-CFTR [1]; [4]) [µM],% Activation (ΔF508-CFTR [2]) [%],EC50 (ΔF508-CFTR [2]) [µM],% Activation (ΔF508-CFTR [1]; [5]) [%],EC50 (ΔF508-CFTR [1]; [5]) [µM]
"CC(C)c1nn(-c2cccc(N3CCOCC3)c2)c2nc(C(=O)O)cc(-c3ccc(N4CCC(C#N)CC4)cc3)c12 [compound 206, 4-[4-(4-cyanopiperidin-1-yl)phenyl]-1-[3-(morpholin-4-yl)phenyl]-3-(propan-2-yl)-1H-pyrazolo[3,4-b]pyridine-6-carboxylic acid]",466.87,0.323,661.63,0.246,,
"CC(C)c1nn(-c2cccc(F)c2)c2nc(C(=O)O)cc(-c3ccc(N4CCC(C#N)CC4)nc3)c12 [compound 285, 4-[6-(4-cyanopiperidin-1-yl)pyridin-3-yl]-1-(3-fluorophenyl)-3-(propan-2-yl)-1H-pyrazolo[3,4-b]pyridine-6-carboxylic acid]",255.73,0.655,428,0.261,,
"CC(C)c1nn(-c2cccc(N3CCCC3)c2)c2nc(C(=O)O)cc(-c3ccc(N(C)C4CCOCC4)nc3)c12 [compound 250, 4-{6-[methyl(oxan-4-yl)amino]pyridin-3-yl}-3-(propan-2-yl)-1[3-(pyrrolidin-1-yl)phenyl]-1H-pyrazolo[3,4-b]pyridine-6-carboxylic acid]",394.7,0.456,622.03,0.508,,
"CCN(CC)CC1(N2CC(Oc3cc(C(=O)O)nc4c3c(C3CCC3)nn4-c3ccccc3)C2)COC1 [compound 646, 3-cyclobutyl-4-[(1-{3-[(diethylamino)methyl]oxetan-3-yl}azetidin-3-yl)oxy]-1-phenyl-1H-pyrazolo[3,4-b]pyridine-6-carboxylic acid]",,,198,3.33,45.39,3.33
"CNC[C@@H]1CCN(c2cc(C(=O)O)nc3c2c(C2CCC2)nn3-c2ccccc2)C1 [compound 676, 3-cyclobutyl-4-{(3S)-3-[(methylamino)methyl]pyrrolidin-1-yl}-1-phenyl-1H-pyrazolo[3,4-b]pyridine-6-carboxylic acid]",,,164.55,0.892,35.03,5
"Cc1cc(-n2nc(C3CCC3)c3c(N4CCC(N5CCOCC5)CC4)cc(C(=O)O)nc32)ccc1F [compound 824, 3-cyclobutyl-1-(4-fluoro-3-methylphenyl)-4-[4-(morpholin-4-yl)piperidin-1-yl]-1H-pyrazolo[3,4-b]pyridine-6-carboxylic acid]",,,535.65,0.277,338.9,0.18
"CCN1CCCN(c2cc(C(=O)O)nc3c2c(C(C)C)nn3-c2ccc(F)cc2)CC1 [compound 797, 4-(4-ethyl-1,4-diazepan-1-yl)-1-(4-fluorophenyl)-3-(propan-2-yl)-1H-pyrazolo[3,4-b]pyridine-6-carboxylic acid]",,,178.6,1.67,31.52,5
"CC(C)c1nn(C2CCCCC2)c2nc(C(=O)O)cc(C3=CCN(C(=O)OC(C)(C)C)CC3)c12 [compound 371, 4-[1-(tert-butoxycarbonyl)-1,2,3,6-tetrahydropyridin-4-yl]-1-cyclohexyl-3-(propan-2-yl)-1H-pyrazolo[3,4-b]pyridine-6-carboxylic acid]",116.35,1.31,283.6,1.1,,
"Cc1nn(-c2ccccc2)c2nc(C(=O)O)cc(N3CCOCC3)c12 [compound 118, 3-methyl-4-(morpholin-4-yl)-1-phenyl-1H-pyrazolo[3,4-b]pyridine-6-carboxylic acid]",26.575,6.67,165.25,3.34,,
"CC(=O)N1CC[C@@H]2CN(c3cc(C(=O)O)nc4c3c(C3CCC3)nn4-c3ccccc3)CC[C@@H]21 (single isomer, unassigned) [compound 587]",,,360.33,2.42,149.5,3.33
"CO[C@H]1CC[C@H](Oc2cc(C(=O)O)nc3c2c(C2CCC2)nn3-c2ccccc2)CC1 [compound 429, 3-cyclobutyl-4-[(trans-4-methoxycyclohexyl)oxy]-1-phenyl-1H-pyrazolo[3,4-b]pyridine-6-carboxylic acid]",,,268.2,0.37,114.95,0.979
"Cc1nn(-c2ccccc2)c2nc(C(=O)O)cc(-c3cnc(N4CCOCC4)nc3)c12 [compound 15, 3-methyl-4-[2-(morpholin-4-yl)pyrimidin-5-yl]-1-phenyl-1H-pyrazolo[3,4-b]pyridine-6-carboxylic acid]",98.68,2.67,282.5,2.6,,
"Cc1nn(-c2ccccc2)c2nc(C(=O)O)cc(OCC3(S(C)(=O)=O)CCC3)c12 [compound 384, 4-{[1-(methanesulfonyl)cyclobutyl]methoxy}-3-methyl-1-phenyl-1H-pyrazolo[3,4-b]pyridine-6-carboxylic acid]",8.1785,5.01,123,5.01,,
"NC(=O)c1nn(-c2ccccc2)c2nc(C(=O)O)cc(-c3ccc(N4CCOCC4)cc3)c12 [compound 64, 3-carbamoyl-4-[4-(morpholin-4-yl)phenyl]-1-phenyl-1H-pyrazolo[3,4-b]pyridine-6-carboxylic acid]",3.754,> 10,113.3,> 10,,
"CC(C)c1nn(-c2cccc(N(C)C)c2)c2nc(C(=O)O)cc(OCC3CCOCC3)c12 [compound 602, 1-[3-(dimethylamino)phenyl]-4-[(oxan-4-yl)methoxy]-3-(propan-2-yl)-1H-pyrazolo[3,4-b]pyridine-6-carboxylic acid]",,,393.4,0.134,159.3,0.256
"O=C(O)c1cc(CN2CCOCC2)c2c(C3CCC3)nn(-c3ccc(F)cc3)c2n1 [compound 857, 3-cyclobutyl-1-(4-fluorophenyl)-4-[(morpholin-4-yl)methyl]-1H-pyrazolo[3,4-b]pyridine-6-carboxylic acid]",,,232.2,2.44,60.01,3.33
"CC(C)c1nn(C2CCCCC2)c2nc(C(=O)O)cc(-c3ccc(N4CCC(F)(F)C4)nc3)c12 [compound 181, 1-cyclohexyl-4-[6-(3,3-difluoropyrrolidin-1-yl)pyridin-3-yl]-3-(propan-2-yl)-1H-pyrazolo[3,4-b]pyridine-6-carboxylic acid]",149.2,1.22,397.95,1.06,,
"CC(C)(CO)c1nn(-c2ccccc2)c2nc(C(=O)O)cc(-c3ccc(N4CCOCC4)nc3)c12 [compound 92, 3-(1-hydroxy-2-methylpropan-2-yl)-4-[6-(morpholin-4-yl)pyridin-3-yl]-1-phenyl-1H-pyrazolo[3,4-b]pyridine-6-carboxylic acid]",2.873,> 10,99.81,> 10,,
"CC(C)c1nn(-c2cccc(N(C)C)c2)c2nc(C(=O)O)cc(-c3cnc(N4CCC(C#N)CC4)nc3)c12 [compound 199, 4-[2-(4-cyanopiperidin-1-yl)pyrimidin-5-yl]-1-[3-(dimethylamino)phenyl]-3-(propan-2-yl)-1H-pyrazolo[3,4-b]pyridine-6-carboxylic acid]",356.9,1.22,602.4,0.917,,
"COC1CN(c2cccc(-n3nc(C(C)C)c4c(-c5ccc(N6CCOCC6)cc5)cc(C(=O)O)nc43)c2)C1 [compound 164, 1-[3-(3-methoxyazetidin-1-yl)phenyl]-4-[4-(morpholin-4-yl)phenyl]-3-(propan-2-yl)-1H-pyrazolo[3,4-b]pyridine-6-carboxylic acid]",359.9,0.675,608.5,0.375,,
"CC(C)(C)OC(=O)N1CC(c2nn(-c3ccccc3)c3nc(C(=O)O)cc(-c4ccc(N5CCOCC5)cc4)c23)C1 [compound 47, 3-[1-(tert-butoxycarbonyl)azetidin-3-yl]-4-[4-(morpholin-4-yl)phenyl]-1-phenyl-1H-pyrazolo[3,4-b]pyridine-6-carboxylic acid]",183.2,0.608,390.5,0.567,,
"O=C(O)c1cc(N2C[C@H](O)[C@@H](O)C2)c2c(C3CCC3)nn(-c3ccccc3)c2n1 [compound 446, 3-cyclobutyl-4-[(3S,4S)-3,4-dihydroxypyrrolidin-1-yl]-1-phenyl-1H-pyrazolo[3,4-b]pyridine-6-carboxylic acid]",,,171.35,3.34,20.695,> 10
"CCCCN1CCCN(c2cc(C(=O)O)nc3c2c(C(C)C)nn3-c2ccc(F)cc2)CC1 [compound 768, 4-(4-butyl-1,4-diazepan-1-yl)-1-(4-fluorophenyl)-3-(propan-2-yl)-1H-pyrazolo[3,4-b]pyridine-6-carboxylic acid]",,,256.5,1.67,79.69,1.58
